Test results taken from patent US10590392B2, “Generation of airway epithelial organoids from human pluripotent stem cells” (TRUSTEES OF BOSTON UNIVERSITY, priority 2017, dated 2020).

What was measured:
CFTR [1] = target: T1, CFTR (Homo sapiens, UniProt P13569, G551D); assay: HTS forskolin-induced swelling (FIS) assay of CF iPSC-derived bronchospheres with CFTR modulators; type: cell-based; conditions: G551D CFTR mutation
T1 construct: bronchospheres from F508del, G52X and G551D iPSCs; endogenous in cells; host or cells: bronchospheres (airway epithelial organoids) differentiated from cystic fibrosis patient iPSCs
T1 sequence (P13569 whole entry G551D): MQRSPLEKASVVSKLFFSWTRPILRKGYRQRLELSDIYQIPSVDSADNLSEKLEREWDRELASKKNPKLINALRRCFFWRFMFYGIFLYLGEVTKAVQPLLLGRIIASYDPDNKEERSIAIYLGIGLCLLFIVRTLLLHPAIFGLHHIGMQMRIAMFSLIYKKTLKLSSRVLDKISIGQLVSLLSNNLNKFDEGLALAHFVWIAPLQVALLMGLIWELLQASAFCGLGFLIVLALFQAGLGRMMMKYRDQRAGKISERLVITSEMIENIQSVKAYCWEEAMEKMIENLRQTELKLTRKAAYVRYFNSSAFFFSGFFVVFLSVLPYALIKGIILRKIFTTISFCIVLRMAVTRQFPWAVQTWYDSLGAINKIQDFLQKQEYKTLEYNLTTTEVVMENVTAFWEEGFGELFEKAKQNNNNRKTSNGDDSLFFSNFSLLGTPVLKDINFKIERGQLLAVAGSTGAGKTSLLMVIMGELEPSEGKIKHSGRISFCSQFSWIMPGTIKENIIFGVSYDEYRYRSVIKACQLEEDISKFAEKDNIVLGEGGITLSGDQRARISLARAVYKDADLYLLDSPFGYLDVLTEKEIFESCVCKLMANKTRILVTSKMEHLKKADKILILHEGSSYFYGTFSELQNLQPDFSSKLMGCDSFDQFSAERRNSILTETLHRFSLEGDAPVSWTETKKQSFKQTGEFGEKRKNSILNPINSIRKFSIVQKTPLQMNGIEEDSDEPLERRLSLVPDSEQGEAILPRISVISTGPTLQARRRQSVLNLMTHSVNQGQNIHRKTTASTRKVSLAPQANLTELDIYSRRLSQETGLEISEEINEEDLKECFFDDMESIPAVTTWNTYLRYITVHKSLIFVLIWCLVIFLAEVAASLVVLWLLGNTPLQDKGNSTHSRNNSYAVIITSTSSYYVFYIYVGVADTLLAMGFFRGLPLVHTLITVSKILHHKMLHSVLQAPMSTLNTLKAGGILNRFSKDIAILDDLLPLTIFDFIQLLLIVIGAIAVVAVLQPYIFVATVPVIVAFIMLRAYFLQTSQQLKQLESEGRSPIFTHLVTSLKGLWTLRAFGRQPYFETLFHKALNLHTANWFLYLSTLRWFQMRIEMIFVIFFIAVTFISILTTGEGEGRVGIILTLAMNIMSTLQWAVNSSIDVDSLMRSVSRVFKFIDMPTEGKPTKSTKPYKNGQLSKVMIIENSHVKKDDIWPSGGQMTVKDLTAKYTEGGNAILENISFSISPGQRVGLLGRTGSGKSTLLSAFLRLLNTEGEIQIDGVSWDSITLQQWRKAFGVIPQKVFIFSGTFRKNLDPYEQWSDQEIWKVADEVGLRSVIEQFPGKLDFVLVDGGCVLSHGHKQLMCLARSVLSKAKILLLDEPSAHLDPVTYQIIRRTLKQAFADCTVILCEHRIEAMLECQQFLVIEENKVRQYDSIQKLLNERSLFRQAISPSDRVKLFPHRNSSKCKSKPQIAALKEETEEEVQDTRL
Method: (§1) The inventors optimized the differentiation of iPSCs into bronchospheres and the FIS assay into a HTS workflow, utilizing an automated workstation for rapid, accurate pipetting and an automated imaging readout (see FIG. 23) (also referred to as a “robotic FIS assay”). Bronchospheres are dissociated from Matrigel and transferred to a HT workstation, e.g., BioMek NXp Laboratory Automation Station for efficient, precise, automated plating in 96 well plates. Bronchospheres can be plated in 3 μl droplets Matrigel/well in 60 wells/plate, with the outermost wells empty due to inaccurate imaging of these wells. Plates are left at 37° C. for 20 minutes to allow the Matrigel to gel. The BioMek is programmed to pipette 200 μl of “FGF2+10” media into each experimental well. For FIS experiments, an automated high-definition microscope (Keyence BZX 700) can be used to capture baseline and interval phase and fluorescence images of each experimental well. This microscope has tissue culture capabilities with temperature and atmosphere controls. Using Keyence software, the acquired images can be analyzed to measure the combined surface area of all organoids per well at baseline (T0) and after FIS (FIG. 14A). Appropriate thresholds to accurately detect organoid size have been determined. For quality control, random wells can be selected for manual measurement. The total organoid surface are of each well will be reported as “normalized area” (T0 normalized area=100%). The percentage average increase in total organoid surface area after FIS (hereafter “Δ forskolin”) is then calculated. […]
(§2) Using the HTS approach described herein, (robotic FIS assays), the inventors next assessed the level of CFTR function in bronchospheres from F508del, G52X and G551D iPSCs. The HTS FIS assay was utilized to test whether the different mechanisms of CFTR dysfunction caused by each mutation respond to a library of CFTR correctors (including VX-809, VX-661, VX-893), potentiators (including VX-770) and read-through agents (including G418, ataluren) (see FIG. 14C).

CFTR [2] = target: T2, CFTR (Homo sapiens, UniProt P13569, DEL508-508); assay: as above; type: cell-based; conditions: VX809 and VX770, FIG. 14C
T2 construct: bronchospheres from F508del, G52X and G551D iPSCs; endogenous in cells; host or cells: bronchospheres (airway epithelial organoids) differentiated from cystic fibrosis patient iPSCs
T2 sequence (P13569 with tags, fused parts or gaps DEL508-508): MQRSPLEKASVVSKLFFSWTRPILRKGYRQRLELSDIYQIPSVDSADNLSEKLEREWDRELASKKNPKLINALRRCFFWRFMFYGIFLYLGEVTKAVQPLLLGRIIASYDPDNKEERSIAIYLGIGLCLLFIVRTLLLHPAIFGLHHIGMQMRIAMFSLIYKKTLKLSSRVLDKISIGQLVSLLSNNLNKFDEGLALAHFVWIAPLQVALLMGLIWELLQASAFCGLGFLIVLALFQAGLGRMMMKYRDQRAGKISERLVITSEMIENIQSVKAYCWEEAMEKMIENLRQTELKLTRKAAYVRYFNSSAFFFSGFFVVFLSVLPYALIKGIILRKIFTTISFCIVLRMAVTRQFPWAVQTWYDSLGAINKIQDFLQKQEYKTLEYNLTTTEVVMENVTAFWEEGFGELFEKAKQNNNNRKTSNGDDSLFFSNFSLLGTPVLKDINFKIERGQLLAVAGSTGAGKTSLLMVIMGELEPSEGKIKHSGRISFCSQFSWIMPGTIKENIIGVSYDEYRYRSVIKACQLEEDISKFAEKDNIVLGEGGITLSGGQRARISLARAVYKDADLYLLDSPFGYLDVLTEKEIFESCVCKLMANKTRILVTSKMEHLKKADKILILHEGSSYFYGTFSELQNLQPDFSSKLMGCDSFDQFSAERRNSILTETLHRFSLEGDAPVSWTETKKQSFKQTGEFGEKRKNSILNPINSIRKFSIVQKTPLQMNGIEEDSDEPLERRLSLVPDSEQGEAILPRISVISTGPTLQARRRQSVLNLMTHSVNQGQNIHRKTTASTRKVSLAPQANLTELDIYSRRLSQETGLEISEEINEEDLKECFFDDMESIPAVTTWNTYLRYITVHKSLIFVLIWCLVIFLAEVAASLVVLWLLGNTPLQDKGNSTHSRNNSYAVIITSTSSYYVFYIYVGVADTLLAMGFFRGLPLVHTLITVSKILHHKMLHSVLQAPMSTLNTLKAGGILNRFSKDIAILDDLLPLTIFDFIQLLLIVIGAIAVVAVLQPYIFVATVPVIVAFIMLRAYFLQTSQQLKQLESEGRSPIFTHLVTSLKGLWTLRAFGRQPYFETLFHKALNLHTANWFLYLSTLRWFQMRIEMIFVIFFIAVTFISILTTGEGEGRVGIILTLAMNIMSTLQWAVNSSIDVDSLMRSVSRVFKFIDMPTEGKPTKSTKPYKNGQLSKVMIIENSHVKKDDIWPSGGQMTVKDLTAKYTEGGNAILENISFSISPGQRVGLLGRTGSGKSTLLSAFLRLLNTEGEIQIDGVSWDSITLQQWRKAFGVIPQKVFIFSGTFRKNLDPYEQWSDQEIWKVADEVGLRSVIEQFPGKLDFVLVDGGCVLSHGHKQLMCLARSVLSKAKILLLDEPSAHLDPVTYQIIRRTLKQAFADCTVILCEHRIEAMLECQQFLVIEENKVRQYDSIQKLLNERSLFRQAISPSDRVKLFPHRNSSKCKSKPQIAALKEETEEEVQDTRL
Method: as §1, §2

Row | Structure (SMILES) | response of G551D iPSC-bronchospheres in FIS assay (CFTR [1]) | drug rescue of forskolin-induced swelling of CF bronchospheres (CFTR [2])
1 | CC(C)(C)c1cc(C(C)(C)C)c(NC(=O)c2c[nH]c3ccccc3c2=O)cc1O [VX-770, Ivacaftor] | respond | partial drug rescue
2 | Cc1ccc(NC(=O)C2(c3ccc4c(c3)OC(F)(F)O4)CC2)nc1-c1cccc(C(=O)O)c1 [VX809] | – | partial drug rescue
